Measurements published in patent US9109045B2, “Mass producing growth factor using adipose derived adult stem cells” (PROSTEMICS CO., LTD., priority 2006, dated 2015).
Where “and” joins values, the source holds several entries; their conditions need not be identical. Equal entries are not always repeated. Where two headings read alike, the source gives them in different places.

Key:
keratinocytes = experiment: Defensive effect against exposure of keratinocytes to UV light (cell viability); assay type: cell-based; conditions: UV light 40 W double lamp 8 minutes, viability after 24 hours, 2.5 cc medium in 5 cc KGM or 2 uM retinol
Description: The defensive effect of growth factors secreted from adipose-derived stem cells against the exposure of keratinocytes UV light was tested in the following manner. Keratinocytes were dispensed into a 6-well plate at a suitable cell concentration in KGM (karatinocyte growth medium; Clonetics.) and incubated in a 5% carbon dioxide incubator at 37° C. To the medium, 2.5 cc of 100% ADSC 3-passage 3-day cultured medium was added to adjust the KGM to 5 cc. Also, 2 uM retinol was added to 5 cc of KGM. Also, as a negative control group, 5 cc of KGM alone was administered to keratinocytes. Each of the test samples was stabilized for 4 hours, such that the raw materials were sufficiently dispersed. After that, each of the test samples was irradiated with UV light using a 40 W double lamp for 8 minutes in an aseptic laboratory. After 24 hours, the UV defense function of the test sample was measured by determining the viability of the cells in comparison with the negative control group, which was untreated with the culture medium or retinol and irradiated with UV light for 8 minutes.

[1] = system: adipose-derived stem cells; experiment: Growth factor secretion (ELISA) of adipose-derived stem cells under chemical stimulation with vitamins; assay type: cell-based, human; conditions: for optimal concentration for synthesis of growth factors: added to serum-free culture medium of adipose-derived stem cells; for TGF β-1 expression / protein levels increased / VEGF expression / protein levels increased / bFGF expression / protein levels increased: chemical stimulation only, vitamin(s) at optimal concentration in serum-free medium, more than 48 hours, compared with control group
Description: In order to examine whether chemical stimulation using a vitamin promotes the synthesis and secretion of growth factors, in the present invention, adipose-derived stem cells were cultured in vitro using serum media and then using serum-free media as described above.
Preferably, after vitamin is added to the culture medium, the culture is incubated for more than 48 hours. When a mixture of vitamins is used, the optimal concentrations of vitamins are the same as above.
Specifically, 1 ml of the culture medium obtained by culturing adipose-derived stem cells to passage 3 in the conditions of Example 1-2 was centrifuged at 1200 g for 5 minutes, and then filtered through a […] filter to remove cell residue. […] Then, the concentration of each of growth factors VEGF, bFGF and TGF β-1 secreted in the culture medium was measured using a sandwich ELISA kit (Quantikine Human FGF basic Immunoassay, R&D systems).
To examine the concentrations of optimally diluted growth factors, the culture medium was serially diluted at the same concentration ratio with a calibration dilution in the kit, the concentration at the absorbance included in the range of the standard curve was determined, and the values included in the range of the standard curve were plotted as data. […] of each growth factor-containing culture media and standard solutions of growth factors was placed in each well coated with an antibody to each of the growth factors (Quantikine Human FGF basic Immunoassay, R&D systems) and was cultured at room temperature for 2 hours. After completion of the antigen-antibody binding reaction, each well was washed four times with wash buffer, and […] of a solution (Quantikine Human FGF basic Immunoassay, R&D systems), containing a secondary antibody to each of the growth factors, was placed in each well, followed by culture at room temperature for 2 hours. After completion of the second antibody binding reaction, each well was washed four times with wash buffer, […] of a color-developing reagent (tetramethylbenzidine, R&D systems) was added to each well, and then the absorbance of the medium was measured at 450 nm with an ELISA reader.
Adipose tissue-derived stem cells were cultured to passage 3 as described in Example (1-2), and when the cultured cells reached a confluence of 80%, the cells were collected with trypsin/EDTA. Then, the cells were accurately dispensed into a 6-well plate at a density of 25,000 cells/well. […]
Cells were cultured in this medium.
The cells were cultured in the above medium in a 5% carbon dioxide incubator at 37° C. for more than 48 hours, and then 200 μl of the culture medium supernatant was centrifuged at 3,000 rpm and filtered through 0.22-μm filter paper. Then, the concentrations of bFGF, VEGF and TGF β-1 in the filtrate were measured by the enzyme-linked immunosorbent assay (ELISA) of Example 2.
As a control group, a normal medium, was used, which was not subjected to physical stimulation or chemical stimulation. The increase in growth factors was compared between the control group and the culture medium subjected to physical stimulation and chemical stimulation.
In a culture process, cells were added to a serum-free medium prepared by adding a Ham's F-12 nutrient mixture to DMEM not containing a pH indicator such as phenol red, at a ratio of 1:1, and adding thereto 2 mM L-glutamine, 1 mM sodium pyruvate and 0.17% sodium bicarbonate. Then, the cells were cultured in a 5% carbon dioxide incubator at 37° C. for more than 48 hours. Then, 200 μl of the culture medium supernatant was centrifuged at 3,000 rpm, and then filtered through 0.22-μm filter paper. Then, the concentrations of bFGF, VEGF and TGF β-1 were measured by the enzyme-linked immunosorbent assay (ELISA) of Example 2.
The case where physical stimulation is used in combination with chemical stimulation will now be described.
For VEGF, a medium was irradiated with UV light and then subjected to scratch stimulation. […]

[2] = system: adipose-derived stem cells
fibroblast cells = experiment: Cell proliferation potential: stem cell culture medium vs recombinant growth factor-containing media; assay type: cell-based, human; conditions: 5000 cells/well seeded; rFGF 50 ng, rVEGF 500 ng in normal media; stem cell medium at 100%
Description: Stem cells isolated from adipose tissue were cultured to passage-3 as described in Example (1-2), and then 10^6 cells of the stem cells were seeded into a T175 flask (area: 175 cm^2; volume: 500 ml) and cultured for 3 days. The culture medium was collected, and added at a concentration of 100% to a 6-well plate in which passage-4 fibroblast cells from the skin tissue of a child were dispensed at a density of 5000 cells/well. For the control group, a medium containing the same concentrations of recombinant growth factors VEGF and bFGF (Santa Cruz.) expressed in E. coli was used. Cell proliferation potential was compared between the adipose-derived stem cell culture medium and the recombinant growth factor-containing culture medium using a cell viability measurement kit.

Compound	Defensive effect (keratinocytes) [%]	Defensive effect (keratinocytes; listed as retinol) [%]	optimal concentration for synthesis of growth factors [1]	TGF β-1 expression / protein levels increased [1] [times]	VEGF expression / protein levels increased [1]	bFGF expression / protein levels increased [1] [times]	cytotoxicity by MTT assay ([2]; at the optimal concentrations)	cell proliferation potential, Cells (fibroblast cells) [Cells]	cytotoxicity by MTT assay [2]
CC1=C(/C=C/C(C)=C/C=C/C(C)=C/CO)C(C)(C)CCC1 [Retinol]	54	54							
Cc1cc2nc3c(=O)[nH]c(=O)nc-3n(C[C@H](O)[C@H](O)[C@H](O)CO)c2cc1C [vitamin B, riboflavin]			50 to 100 µM	1.56	1.68 times and 1.56 times	1.33			
O=C1O[C@H]([C@@H](O)CO)C(O)=C1O [vitamin C]			10 to 100 µM	1.20	1.68 times	2.33	no cytotoxicity occurred		
vitamin D			5 to 10 µM	1.16	1.30 times	2.80			
rFGF: recombinant growth factor bFGF (Santa Cruz) expressed in E. coli								8215.3	
vitamin A			2 to 5 µM and 2 to 10 µM	1.20	1.59 times	1.62			no cytotoxicity occurred
